Measured values taken from patent US20050112573A1, “Method of detecting toxic substance” (priority 2001, published 2005).

System: yeast genes (level of expressed mRNA)
Assay: DNA chip analysis of expressed mRNA of yeast genes after 2 h culture with a toxic chemical substance
Format: cell-based, Saccharomyces cerevisiae S288C
Procedure: Yeast (Saccharomyces cerevtisiae S288C (α SUC2mal mel gap2 CUP1)) were cultured at 25° C. on YPD medium (yeast extract 1%, polypepton 2%, glucose 2%). One of toxic chemical substances was added to the cell at logarithmic growth phase, and the cell was further cultured for two hours. Cell was cultured without any chemical substance in the same condition, and was used as control. Concentrations of the chemical substances were defined to inhibit the growth of the yeast but not lead to death.
After the completion of cultivation, the culture was centrifuged to collect the cells. To the cells, sodium acetate buffer (50 mM sodium acetate, 10 mM EDTA, 1% SDS) was added, and the mixture was shaken at 65° C. for five minutes, followed by returning to room temperature, and obtaining the supernatant, which procedure was repeated two times. To the supernatant, ½ amount of a solution of phenol/chloroform was added, and the mixture was centrifuged to give a supernatant, which was added with an equal amount of chloroform, and the mixture was centrifuged to give a supernatant. To the supernatant, an equal amount of isopropanol containing 0.3 M sodium acetate was added, and the mixture was allowed to stand at room temperature for 30 minutes, after which the mixture was centrifuged to give a sediment of the whole RNAs. Seventy % ethanol was added to the sediment, and the mixture was again centrifuged to give a sediment, which was then dried and dissolved in water. mRNA was isolated from the whole RNAs as followings. In view of the fact that a poly A chain is attached to the 3′ terminus of mRNA, a polynucleotide having a poly T structure which was immobilized on the surface of latex beads was used to trap the mRNA, and then the mRNA was washed and eluted with spine column (Oligotex-dT30<Super>mRNA Purification Kit, Takara). Reverse transcription of the mRNA was conducted with a reverse transcriptase (Super Script II Reverse Transcriptase; catalogue No. 18064-014, GibcoBRL) using fluorescence-labeled nucleotides to give cDNAs that were introduced with Cy3-dUTP or Cy5-dUTP during the reverse transcription.
The labeled cDNAs were dissolved in TE buffer (10 mM Tris-HCl/1 mM EDTA, pH8.0), and the solution was dropped on the DNA chip containing the whole genes of yeast (DNA Chip Research Inc. Japan) so that the cDNAs were hybridized on the DNA chip at 65° C. for over 12 hours. The fluoresces intensity of the DNA chip was read with a scanner, and the ratio relative to the fluorescence intensity resulting from the absence of chemical substance was estimated as the following, which is shown in Tables 1 to 9: [formula]
In the Tables, “Intensity” indicated in the rightmost column is a value of the level of expressed mRNA of each gene in control cells as divided by the average level of the expressions of the whole genes.

CCCCCCCCCCCCOS(=O)(=O)[O-].[Na+] [(18), sodium lauryl sulfate]
The level of expressed mRNA in the presence of chemical substance/absence: YGR293C (gene YGR293C): 0.9 | The level of expressed mRNA in the presence of chemical substance/absence: YHL006C (gene YHL006C): 1.0 | The level of expressed mRNA in the presence of chemical substance/absence: YHL021C (gene YHL021C): 3.6 | The level of expressed mRNA in the presence of chemical substance/absence: YHL037C (gene YHL037C): 0.9 | level of expressed mRNA in the presence of chemical substance/in its absence (gene YHR037W): 1.4 | The level of expressed mRNA in the presence of chemical substance/absence: YHR083W (gene YHR083W): 1.0 | level of expressed mRNA in the presence of chemical substance/in its absence (gene YHR092C): 1.3 | The level of expressed mRNA in the presence of chemical substance/absence: YHR095W (gene YHR095W): 0.7 | The level of expressed mRNA in the presence of chemical substance/absence: YHR105W (gene YHR105W): 0.9 | The level of expressed mRNA in the presence of chemical substance/absence: YHR134W (gene YHR134W): 1.3 | level of expressed mRNA in the presence of chemical substance/in its absence (gene YHR137W): 1.3 | The level of expressed mRNA in the presence of chemical substance/absence: YHR180W (gene YHR180W): 1.0 | The level of expressed mRNA in the presence of chemical substance/absence: YHR181W (gene YHR181W): 0.9 | level of expressed mRNA in the presence of chemical substance/in its absence (gene YHR190W): 1.8 | level of expressed mRNA in the presence of chemical substance/in its absence (gene YIL033C): 1.2 | The level of expressed mRNA in the presence of chemical substance/absence: YIL108W (gene YIL108W): 0.7 | The level of expressed mRNA in the presence of chemical substance/absence: YIL127C (gene YIL127C): 0.6 | level of expressed mRNA in the presence of chemical substance/in its absence (gene YIL154C): 1.0 | The level of expressed mRNA in the presence of chemical substance/absence: YIL165C (gene YIL165C): 1.3 | level of expressed mRNA in the presence of chemical substance/in its absence (gene YIL167W): 0.8 | level of expressed mRNA in the presence of chemical substance/in its absence (gene YIR035C): 0.9 | The level of expressed mRNA in the presence of chemical substance/absence: YJL017W (gene YJL017W): 1.0 | The level of expressed mRNA in the presence of chemical substance/absence: YJL032W (gene YJL032W): 1.1 | The level of expressed mRNA in the presence of chemical substance/absence: YJL037W (gene YJL037W): 0.9 | The level of expressed mRNA in the presence of chemical substance/absence: YJL049W (gene YJL049W): 1.1 | level of expressed mRNA in the presence of chemical substance/in its absence (gene YJL088W): 0.9 | The level of expressed mRNA in the presence of chemical substance/absence: YJL097W (gene YJL097W): 1.1 | level of expressed mRNA in the presence of chemical substance/in its absence (gene YJL132W): 1.5 | level of expressed mRNA in the presence of chemical substance/in its absence (gene YJL196C): 1.9 | The level of expressed mRNA in the presence of chemical substance/absence: YJR030C (gene YJR030C): 0.9 | The level of expressed mRNA in the presence of chemical substance/absence: YJR044C (gene YJR044C): 1.6 | level of expressed mRNA in the presence of chemical substance/in its absence (gene YJR142W): 1.4 | level of expressed mRNA in the presence of chemical substance/in its absence (gene YJR148W): 1.7 | level of expressed mRNA in the presence of chemical substance/in its absence (gene YJR159W): 2.3 | The level of expressed mRNA in the presence of chemical substance/absence: YKL051W (gene YKL051W): 1.4 | The level of expressed mRNA in the presence of chemical substance/absence: YKL059C (gene YKL059C): 0.9 | level of expressed mRNA in the presence of chemical substance/in its absence (gene YKL067W): 3.2 | The level of expressed mRNA in the presence of chemical substance/absence: YKL090W (gene YKL090W): 1.0 | The level of expressed mRNA in the presence of chemical substance/absence: YKL094W (gene YKL094W): 1.9 | The level of expressed mRNA in the presence of chemical substance/absence: YKL097C (gene YKL097C): 0.5 | The level of expressed mRNA in the presence of chemical substance/absence: YKL100C (gene YKL100C): 1.5 | level of expressed mRNA in the presence of chemical substance/in its absence (gene YKR039W): 1.1 | The level of expressed mRNA in the presence of chemical substance/absence: YKR040C (gene YKR040C): 0.8 | The level of expressed mRNA in the presence of chemical substance/absence: YLR097C (gene YLR097C): 1.7 | level of expressed mRNA in the presence of chemical substance/in its absence (gene YLR142W): 3.2 | level of expressed mRNA in the presence of chemical substance/in its absence (gene YLR180W): 0.7 | The level of expressed mRNA in the presence of chemical substance/absence: YLR226W (gene YLR226W): 1.0 | level of expressed mRNA in the presence of chemical substance/in its absence (gene YLR273C): 1.0 | level of expressed mRNA in the presence of chemical substance/in its absence (gene YLR300W): 0.5 | level of expressed mRNA in the presence of chemical substance/in its absence (gene YLR307W): 1.0 | The level of expressed mRNA in the presence of chemical substance/absence: YLR338W (gene YLR338W): 0.6 | The level of expressed mRNA in the presence of chemical substance/absence: YLR339C (gene YLR339C): 0.6 | The level of expressed mRNA in the presence of chemical substance/absence: YLR392C (gene YLR392C): 1.6 | The level of expressed mRNA in the presence of chemical substance/absence: YLR415C (gene YLR415C): 1.0 | The level of expressed mRNA in the presence of chemical substance/absence: YLR427W (gene YLR427W): 1.0 | The level of expressed mRNA in the presence of chemical substance/absence: YML013W (gene YML013W): 0.8 | The level of expressed mRNA in the presence of chemical substance/absence: YML029W (gene YML029W): 1.0
